From patent EP4722205A1, “HETEROCYCLIC COMPOUND AND NOXIOUS ARTHROPOD-CONTROLLING COMPOSITION CONTAINING SAME” (Sumitomo Chemical Company, Limited, priority 2023, dated 2024) come the findings set out here.

Bounds are passed on as bounds.

Holding throughout (format): in vivo
For test [1], the system named is common house mosquitos (Culex pipiens pallens). As to the kind of experiment: Test Method 12: mosquito larvae released into diluted solution. The conditions noted are these: 24 h, last instar larvae, after 1 day, 25°C, read-out: controlling value. The procedure: (§1) The following tests in the test examples below were conducted at 25°C.
Into the diluted solution, 30 common house mosquitos (Culex pipiens pallens) at the last instar larval stage are released, and after 1 day, the state of the house mosquito larvae is examined, and the mortality of insects is calculated by the following equation. [formula]

For test [2], the system named is Western corn rootworms (Diabrotica virgifera virgifera). As to the kind of experiment: Test Method 5: corn seedling immersion, Western corn rootworm. The conditions noted are these: 120 h, read-out: mortality of insects. The procedure: (§2) Next, an efficacy of the present compound on controlling harmful arthropods is shown by Test examples. The following tests in the test examples below were conducted at 25°C.
Each 1 mg of the test compounds is dissolved into 50 µL of a mixed solution of polyoxyethylene sorbitan monolaurate and acetone (polyoxyethylene sorbitan monolaurate: acetone = 5 : 95 (v/v ratio)). Thereto is added water containing 0.03% by volume of Shindain (registered trademark) to prepare a diluted solution containing a prescribed concentration of the test compound.
A young entire seedling of Corns (Zea mays) is immersed into the diluted solution for 30 seconds. Thereafter, each two grains of the seedlings are installed in a plastic petri dish ([…]), and 10 Western corn rootworms (Diabrotica virgifera virgifera) at the second instar larval stage are released into the dish. After 5 days, the number of the dead insects is counted, and the mortality of insects is calculated by the following equation. Mortality(%) = (Numberofdeadinsects/10) × 100 [formula]

Test [3] concerns cotton aphids (Aphis gossypii). As to the kind of experiment: Test Method 11: foliar spray on cucumber seedling infested with cotton aphids (Formulation example 5). The conditions noted are these: 120 h, spray 10 mL/seedling, examined after 5 days, 25°C, read-out: controlling value.
The test system of test [4] is diamondback moth (Plutella xylostella). As to the kind of experiment: Test Method 4: sprayed cabbage leaves fed to second instar diamondback moth. The conditions noted are these: 120 h, second instar larvae, after 5 days, 25°C, read-out: mortality of insects. On the procedure: as §2
Test compounds are made to a formulation according to a similar method to that described in the Formulation example 1, and thereto is added water containing 0.03 v/v% of Shindain (registered trademark) to prepare a diluted solution containing a prescribed concentration of the test compound.
Cabbage (Brassicae oleracea) seedling (on the developmental stage of the second to third true leaf) is planted in a cup, and the diluted solutions are sprayed into the seedling at a ratio of 20 mL/seedling. Thereafter, the stem and leaf thereof are cut out and then is installed into a cup that is covered with filter paper on the bed of the cup. Five (5) diamondback moth (Plutella xylostella) at the second instar larval stage are released into the cup. After 5 days, the number of the surviving insects is counted, and the mortality of insects is calculated by the following equation. [formula]

In test [5] the test system is cotton aphids (Aphis gossypii). As to the kind of experiment: Test Method 1: foliar spray on cucumber seedling infested with cotton aphids (Formulation example 1). The conditions noted are these: 120 h, spray 10 mL/seedling, examined after 5 days, 25°C, read-out: controlling value.
Test [6] has as its system diamondback moth (Plutella xylostella). Description: Test Method 10: sprayed cabbage seedling, third instar diamondback moth (Formulation example 5). The conditions noted are these: 144 h, third instar larvae, after 6 days, 25°C, read-out: controlling value. The procedure: as §1
Cabbage (Brassicae oleracea) seedling (on the developmental stage of the third to fourth true leaf) is planted in a cup, and the diluted solutions are sprayed into the seedling at a ratio of 20 mL/seedling. Thereafter, ten (10) diamondback moth (Plutella xylostella) at the third instar larval stage are released onto the seedling. After 6 days, the number of the surviving insects is counted, and the mortality of insects is calculated by the following equation. [formula]

Test [7] deals with cotton worm (Spodoptera litura). Description: Test Method 3: sprayed cabbage leaves fed to second instar cotton worm. The note with it: 120 h, second instar larvae, after 5 days, 25°C, read-out: mortality of insects. The procedure:
as §1
Cabbage (Brassicae oleracea) seedling (on the developmental stage of the second to third true leaf) is planted in a cup, and the diluted solutions are sprayed into the seedling at a ratio of 20 mL/seedling. Thereafter, the stem and leaf thereof are cut out and then is installed into a cup that is covered with filter paper on the bed of the cup. Five (5) cotton worm (Spodoptera litura) at the second instar larval stage are released into the cup. After 5 days, the number of the surviving insects is counted, and the mortality of insects is calculated by the following equation. [formula]

Test [8] has the same test system. As to the kind of experiment: Test Method 9: sprayed cabbage seedling, third instar cotton worm (Formulation example 5). The conditions noted are these: 144 h, third instar larvae, after 6 days, 25°C, read-out: controlling value. On the procedure: as §1
Cabbage (Brassicae oleracea) seedling (on the developmental stage of the third to fourth true leaf) is planted in a cup, and the diluted solutions are sprayed into the seedling at a ratio of 20 mL/seedling. Thereafter, ten (10) cotton worm (Spodoptera litura) at the third instar larval stage are released onto the seedling. After 6 days, the number of the surviving insects is counted, and the mortality of insects is calculated by the following equation. [formula]

For test [9], the system named is housefly (Musca domestica). As to the kind of experiment: Test Method 8: coated container contact test, housefly. The note with it: 24 h, 40 mg/m^2, female adults, after one (1) day, 25°C, read-out: mortality of insects. The procedure:
as §2
Acetone solution in which test compounds are adjusted to 800 ppm are prepared, and the solution is poured into a container having an internal volume of 20 mL, and the solution is coated uniformly on an inner face of the container such that the test compound is made to be 40 mg/m^2, and the container is then dried.
Five (5) housefly (Musca domestica) female adults are placed in the container, and the cup is covered with the lid. After the prescribed timing is passed, the state of the housefly is examined, and the mortality of insects is calculated by the following equation. [formula]

On to `CCS(=O)(=O)c1c(C(=O)N(C)c2nc3ccc(C(F)(F)F)cc3s2)nc2ccc(I)cn12` [compound 26], for which the mortality at 3.5 ppm in test [1] was no less than 90%. The mortality at 200 ppm in test [2] was no less than 80%; in test [3], no less than 90%; in test [6], no less than 80%. For the same compound, the mortality at 50 ppm in test [3] was no less than 90%; in test [6], no less than 80%. In addition, the mortality at 500 ppm was no less than 80% in test [4] and no less than 90% in test [5].

Take `CCS(=O)(=O)c1c(C(=O)N(C)c2nc3ccc(F)c(F)c3s2)nc2ccc(I)cn12` [compound 33]: in test [1], the mortality at 3.5 ppm was no less than 90%. The mortality at 500 ppm in test [7] was no less than 80%; in [4] it was no less than 80%; in test [5], no less than 90%. In addition, the mortality at 200 ppm in test [2] is no less than 80%; in [8], no less than 80%; in [3], no less than 90%; in [6], no less than 80%. Also, the mortality at 50 ppm in test [8] is no less than 80%; in test [3], no less than 90%; in test [6] it was no less than 80%. Also, the mortality at 40 mg/m2 in test [9] was no less than 80%.

As for `CCS(=O)(=O)c1c(C(=O)N(C)c2nc3cc(F)c(F)cc3s2)nc2ccc(Br)cn12` [compound 43], the mortality at 500 ppm in test [7] and in [4] was no less than 80% each time. Further, the mortality at 50 ppm in test [8] was no less than 80%. Further, the mortality at 200 ppm in test [8] is no less than 80%; in test [3] it was no less than 90%. The mortality at 40 mg/m2 in test [9] was no less than 80%.

For the compound `CCS(=O)(=O)c1c(C(=O)N(C)c2nc3c(F)c(F)c(F)c(F)c3s2)nc2ccc(I)cn12` [compound 77], the mortality at 500 ppm in test [7] and in test [4] was no less than 80% each time. For the same compound, the mortality at 200 ppm in [2] and in test [8] was no less than 80% each time. Also, the mortality at 50 ppm in test [8] was no less than 80%. In addition, in test [9], the mortality at 40 mg/m2 is no less than 80%.

On to `CCS(=O)(=O)c1c(C(=O)N(C)c2nc3cc(Cl)c(F)cc3s2)nc2ccc(I)cn12` [compound 101], for which the mortality at 200 ppm in test [2], in test [8] and in test [6] was no less than 80% each time. The mortality at 50 ppm in test [8] and in [6] was no less than 80% throughout. The mortality at 500 ppm in [4] was no less than 80%.

On to `CCS(=O)(=O)c1cc(-c2ncccn2)cnc1C(=O)N(C)c1nc2cc(F)c(F)cc2s1` [compound 111], for which the mortality at 3.5 ppm in test [1] is no less than 90%. For the same compound, the results for the mortality at 500 ppm in test [7], in test [4] and in test [5] were no less than 80%, no less than 80% and no less than 90%, respectively. The figures for the mortality at 50 ppm in [8], in test [3] and in test [6] were no less than 80%, no less than 90% and no less than 80%, respectively. For the same compound, the mortality at 200 ppm in test [8] was no less than 80%; in test [3], no less than 90%; in test [6] it was no less than 80%.

For `CCS(=O)(=O)c1cc(C2CC2)cnc1C(=O)N(C)c1nc2cc(F)c(F)cc2s1` [compound 115], the mortality at 3.5 ppm in [1] is no less than 90%. Besides, the mortality at 500 ppm in [7] is no less than 80%; in test [4] it was no less than 80%; in test [5], no less than 90%. The mortality at 50 ppm in test [8] was no less than 80%; in test [3], no less than 90%; in test [6] it was no less than 80%. Also, the mortality at 200 ppm was no less than 80% in test [8], no less than 90% in [3] and no less than 80% in test [6].

On to `CCOc1cnc(C(=O)N(C)c2nc3cc(F)c(F)cc3s2)c(S(=O)(=O)CC)c1` [compound 125], for which the mortality at 3.5 ppm in [1] is no less than 90%. Besides, the mortality at 500 ppm in test [7] is no less than 80%; in [4], no less than 80%; in test [5] it was no less than 90%. Also, the results for the mortality at 50 ppm in [8], in [3] and in test [6] were no less than 80%, no less than 90% and no less than 80%, respectively. The results for the mortality at 200 ppm in [8], in [3] and in test [6] were no less than 80%, no less than 90% and no less than 80%, respectively.

As to `CCS(=O)(=O)c1ccc(-c2ncccn2)nc1C(=O)N(C)c1nc2cc(F)c(F)cc2s1` [compound 130], the mortality at 3.5 ppm in test [1] was no less than 90%. For the same compound, the mortality at 500 ppm in test [7] is no less than 80%; in test [4], no less than 80%; in test [5] it was no less than 90%. In addition, the mortality at 50 ppm was no less than 80% in [8], no less than 90% in [3] and no less than 80% in test [6]. Moreover, the mortality at 200 ppm in test [8] is no less than 80%; in test [3] it was no less than 90%; in test [6], no less than 80%.

Turning to `CCS(=O)(=O)c1ccc(NC)nc1C(=O)N(C)c1nc2cc(F)c(F)cc2s1` [compound 134], the mortality at 3.5 ppm in test [1] was no less than 90%. The figures for the mortality at 500 ppm in test [7], in test [4] and in test [5] were no less than 80%, no less than 80% and no less than 90%, respectively. Moreover, the mortality at 50 ppm in [8] was no less than 80%; in [3], no less than 90%; in [6], no less than 80%. In addition, the results for the mortality at 200 ppm in test [8], in test [3] and in [6] were no less than 80%, no less than 90% and no less than 80%, respectively.

Take `CCS(=O)(=O)c1ccc(NC)nc1C(=O)N(C)c1nc2cc(F)c(F)c(F)c2s1` [compound 138]: the mortality at 3.5 ppm in test [1] is no less than 90%. For the same compound, the mortality at 500 ppm in test [7] was no less than 80%; in test [4], no less than 80%; in test [5] it was no less than 90%. The mortality at 50 ppm in test [8] was no less than 80%; in [3], no less than 90%; in test [6] it was no less than 80%. Besides, the mortality at 200 ppm was no less than 80% in test [8], no less than 90% in test [3] and no less than 80% in test [6]. In test [9], the mortality at 40 mg/m2 was no less than 80%.

Take `CCS(=O)(=O)c1ccc(NC2CC2)nc1C(=O)N(C)c1nc2cc(F)c(F)c(F)c2s1` [compound 139]: the mortality at 3.5 ppm in [1] is no less than 90%. The mortality at 500 ppm in test [7] and in [4] was no less than 80% each time. The mortality at 50 ppm in [8] was no less than 80%; in test [3], no less than 90%; in test [6], no less than 80%. Further, the mortality at 200 ppm in test [8] was no less than 80%; in [3], no less than 90%; in [6], no less than 80%. Moreover, in [9], the mortality at 40 mg/m2 is no less than 80%.
